According to PubChem BioAssay AID1845212 (Molecular Pharmacology Branch, DTP, NCI, 2023):

Test system: NCI-H719 tumor spheroids, viability
Experiment: Anticancer human tumor NCI-H719 cell line growth inhibition;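 further: spheroids exposed to compounds for seven days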;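 on viability, T/C: percent viability relative to DMSO vehicle control as 100%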
Details: spheroids with HUVEC and MSC; for IC50: curve of first compound; for viability, T/C: stronger effect = lower value; active means viability on the fitted dose curve at most 10% of control; inactive means the rest
In short: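 Complex tumor spheroids combined malignant cells with endothelial cells and mesenchymal stem cells. DNA-damaging drugs and DNA repair inhibitors were tested alone and in combination, at half-log dilutions down from clinical Cmax (top 10 microM if Cmax unknown), 0.25% DMSO final.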

[1] = second compound 1 µM, first compound 0.00949 µM
[2] = second compound 1 µM, first compound 0.03 µM
[3] = second compound 1 µM, first compound 0.0949 µM
[4] = second compound 1 µM, first compound 0.3 µM
[5] = second compound 1 µM, first compound 0.949 µM
[6] = second compound 1 µM, first compound 3 µM
[7] = second compound 3.16 µM, first compound 0.00949 µM
[8] = second compound 3.16 µM, first compound 0.03 µM
[9] = second compound 3.16 µM, first compound 0.0949 µM
[10] = second compound 3.16 µM, first compound 0.3 µM
[11] = second compound 3.16 µM, first compound 0.949 µM
[12] = second compound 3.16 µM, first compound 3 µM
[13] = second compound 10 µM, first compound 0.00949 µM
[14] = second compound 10 µM, first compound 0.03 µM
[15] = second compound 10 µM, first compound 0.0949 µM
[16] = second compound 10 µM, first compound 0.3 µM
[17] = second compound 10 µM, first compound 0.949 µM
[18] = second compound 10 µM, first compound 3 µM
[19] = second compound 31.6 µM, first compound 0.00949 µM
[20] = second compound 31.6 µM, first compound 0.03 µM
[21] = second compound 31.6 µM, first compound 0.0949 µM
[22] = second compound 31.6 µM, first compound 0.3 µM
[23] = second compound 31.6 µM, first compound 0.949 µM
[24] = second compound 31.6 µM, first compound 3 µM
[25] = second compound 100 µM, first compound 0.00949 µM
[26] = second compound 100 µM, first compound 0.03 µM
[27] = second compound 100 µM, first compound 0.0949 µM
[28] = second compound 100 µM, first compound 0.3 µM
[29] = second compound 100 µM, first compound 0.949 µM
[30] = second compound 100 µM, first compound 3 µM

Cc1sc2c(c1C)C(c1ccc(Cl)cc1)=NC(CC(=O)Nc1ccc(O)cc1)c1nnc(C)n1-2 (stereo not given) + Cn1nnc2c(C(N)=O)ncn2c1=O
inactive: viability, T/C [1] 90.8% | viability, T/C [2] 80.5% | viability, T/C [3] 41.9% | viability, T/C [4] 20.6% | viability, T/C [7] 95.2% | viability, T/C [8] 98.7% | viability, T/C [9] 65.9% | viability, T/C [10] 15.6% | viability, T/C [13] 96.5% | viability, T/C [14] 89% | viability, T/C [15] 73.1% | viability, T/C [16] 39.8% | viability, T/C [19] 107% | viability, T/C [20] 104% | viability, T/C [21] 31.9% | viability, T/C [25] 88% | viability, T/C [26] 65% | viability, T/C [27] 37% | viability, T/C [28] 6.38%
201 nM: IC50 (second compound 10 µM)
137 nM: IC50 (second compound 3.16 µM)
54.1 nM: IC50 (second compound 100 µM)
79.9 nM: IC50 (second compound 1 µM)
71 nM: IC50 (second compound 31.6 µM)
active: viability, T/C [5] 4.49% | viability, T/C [6] 3.76% | viability, T/C [11] 4.84% | viability, T/C [12] 3.28% | viability, T/C [17] 4.17% | viability, T/C [18] 2.94% | viability, T/C [22] 14.3% | viability, T/C [23] 3.77% | viability, T/C [24] 2.95% | viability, T/C [29] 3.72% | viability, T/C [30] 3%

CC1COCCN1c1cc(-c2ccnn2C)c2ccnc(-c3ccn[nH]3)c2n1 (stereo not given) + Cn1nnc2c(C(N)=O)ncn2c1=O
active: viability, T/C (second compound 1 µM, first compound 3.16 µM) 7.33% | viability, T/C (second compound 1 µM, first compound 10 µM) 9.3% | viability, T/C (second compound 3.16 µM, first compound 3.16 µM) 7.62% | viability, T/C (second compound 3.16 µM, first compound 10 µM) 9.51% | viability, T/C (second compound 10 µM, first compound 3.16 µM) 7.59% | viability, T/C (second compound 10 µM, first compound 10 µM) 8.83% | viability, T/C (second compound 31.6 µM, first compound 3.16 µM) 6.53% | viability, T/C (second compound 31.6 µM, first compound 10 µM) 9.03%
< 31.6 nM: IC50 (second compound 100 µM)
60.2 nM: IC50 (second compound 3.16 µM)
81.1 nM: IC50 (second compound 1 µM)
38.9 nM: IC50 (second compound 31.6 µM)
inactive: viability, T/C (second compound 1 µM, first compound 0.0316 µM) 60.4% | viability, T/C (second compound 1 µM, first compound 0.1 µM) 47.4% | viability, T/C (second compound 1 µM, first compound 0.316 µM) 27.2% | viability, T/C (second compound 1 µM, first compound 1 µM) 13.5% | viability, T/C (second compound 3.16 µM, first compound 0.0316 µM) 61.2% | viability, T/C (second compound 3.16 µM, first compound 0.1 µM) 40.7% | viability, T/C (second compound 3.16 µM, first compound 0.316 µM) 23.1% | viability, T/C (second compound 3.16 µM, first compound 1 µM) 10.2% | viability, T/C (second compound 10 µM, first compound 0.0316 µM) 63.1% | viability, T/C (second compound 10 µM, first compound 0.1 µM) 41% | viability, T/C (second compound 10 µM, first compound 0.316 µM) 23.3% | viability, T/C (second compound 10 µM, first compound 1 µM) 9.97% | viability, T/C (second compound 31.6 µM, first compound 0.0316 µM) 54.5% | viability, T/C (second compound 31.6 µM, first compound 0.1 µM) 30.4% | viability, T/C (second compound 31.6 µM, first compound 0.316 µM) 18.1% | viability, T/C (second compound 31.6 µM, first compound 1 µM) 8.01% | viability, T/C (second compound 100 µM, first compound 0.0316 µM) 26.8% | viability, T/C (second compound 100 µM, first compound 0.1 µM) 14.7% | viability, T/C (second compound 100 µM, first compound 0.316 µM) 9.58% | viability, T/C (second compound 100 µM, first compound 1 µM) 5.42% | viability, T/C (second compound 100 µM, first compound 3.16 µM) 17.8% | viability, T/C (second compound 100 µM, first compound 10 µM) 7.51%
63.8 nM: IC50 (second compound 10 µM)

CNCc1ccc(-c2cc(-c3nc(-c4ccc(S(=O)(=O)C(C)C)cc4)cnc3N)on2)cc1 + Cn1nnc2c(C(N)=O)ncn2c1=O
131 nM: IC50 (second compound 1 µM)
33.6 nM: IC50 (second compound 100 µM)
inactive: viability, T/C [1] 88.2% | viability, T/C [2] 95% | viability, T/C [3] 43.5% | viability, T/C [4] 39% | viability, T/C [5] 8.27% | viability, T/C [7] 97.6% | viability, T/C [8] 94.2% | viability, T/C [9] 46.7% | viability, T/C [10] 18.9% | viability, T/C [13] 101% | viability, T/C [14] 93.7% | viability, T/C [15] 80.2% | viability, T/C [16] 15% | viability, T/C [17] 8.28% | viability, T/C [18] 18.1% | viability, T/C [19] 105% | viability, T/C [20] 106% | viability, T/C [21] 49.8% | viability, T/C [22] 15.7% | viability, T/C [23] 8.28% | viability, T/C [24] 37.8% | viability, T/C [25] 80% | viability, T/C [26] 52.8% | viability, T/C [27] 24.4% | viability, T/C [28] 9.66% | viability, T/C [29] 39.1% | viability, T/C [30] 0.23%
162 nM: IC50 (second compound 10 µM)
94.4 nM: IC50 (second compound 31.6 µM)
95.4 nM: IC50 (second compound 3.16 µM)
active: viability, T/C [6] 0.15% | viability, T/C [11] 9.22% | viability, T/C [12] 0.14%
